Measurements from the NIST ThermoML archive (doi:10.1016/j.jct.2019.02.011).

Test: xn = mol fraction of the nth substance listed
Conditions: Liquid, Vibrating tube method

COC(=O)OC [dimethyl carbonate] + CO
mass density [kg/m3]
Conditions	100 kPa	5000 kPa	10000 kPa	15000 kPa	20000 kPa	25000 kPa	30000 kPa	35000 kPa	40000 kPa
293.15 K, x1 = 0.0253	–	–	–	819.01	822.93	826.85	830.45	833.84	837.02
293.15 K, x1 = 0.0503	–	–	–	832.64	836.57	840.49	844.1	847.49	850.69
293.15 K, x1 = 0.0745	–	–	–	845.15	849.09	853.02	856.63	860.04	863.25
293.15 K, x1 = 0.101	–	–	–	858.22	862.17	866.1	869.72	873.13	876.36
293.15 K, x1 = 0.1502	–	–	–	880.67	884.64	888.56	892.2	895.68	898.94
293.15 K, x1 = 0.2059	–	–	–	903.9	907.88	911.86	915.51	919	922.29
293.15 K, x1 = 0.25	–	–	916.63	920.72	924.71	928.69	932.36	935.81	939.11
293.15 K, x1 = 0.3004	–	–	934.21	938.3	942.31	946.29	949.97	953.48	956.8
293.15 K, x1 = 0.3426	–	–	947.86	951.96	955.98	959.96	963.65	967.16	970.51
293.15 K, x1 = 0.3984	–	–	964.54	968.64	972.68	976.66	980.36	983.88	987.25
293.15 K, x1 = 0.4514	–	–	979.07	983.17	987.22	991.16	994.86	998.4	1001.78
293.15 K, x1 = 0.5054	–	–	992.67	996.78	1000.83	1004.77	1008.44	1011.98	1015.38
293.15 K, x1 = 0.5509	–	–	1003.27	1007.38	1011.44	1015.38	1019.05	1022.6	1026.01
293.15 K, x1 = 0.6002	–	–	1013.92	1018.04	1022.11	1026.05	1029.73	1033.28	1036.7
293.15 K, x1 = 0.6469	–	–	1023.3	1027.41	1031.49	1035.43	1039.12	1042.68	1046.11
293.15 K, x1 = 0.6993	–	–	1033.07	1037.19	1041.28	1045.22	1048.91	1052.48	1055.92
293.15 K, x1 = 0.7496	–	–	1041.86	1045.98	1050.08	1054.02	1057.72	1061.24	1064.69
293.15 K, x1 = 0.799	–	–	1050.01	1054.09	1058.13	1062.08	1065.78	1069.31	1072.77
293.15 K, x1 = 0.837	–	–	1055.93	1060.01	1064.06	1068.01	1071.71	1075.29	1078.71
293.15 K, x1 = 0.9093	–	–	1066.58	1070.66	1074.72	1078.67	1082.38	1085.91	1089.35
293.15 K, x1 = 0.9239	–	–	1068.62	1072.7	1076.76	1080.71	1084.42	1087.96	1091.39
293.15 K, x1 = 0.9575	–	–	1073.25	1077.33	1081.4	1085.34	1089.06	1092.6	1096.04
293.15 K, x1 = 0.9861	–	–	1077.09	1081.17	1085.23	1089.18	1092.9	1096.44	1099.94
293.15 K, x1 = 1	–	–	1078.93	1083.01	1087.08	1091.03	1094.75	1098.34	1101.84
298.15 K, x1 = 0.0253	801.12	805.88	810.17	814.5	818.56	–	–	–	–
298.15 K, x1 = 0.0503	814.67	819.42	823.72	828.05	832.13	–	–	–	–
298.15 K, x1 = 0.0745	827.15	831.91	836.21	840.55	844.63	–	–	–	–
298.15 K, x1 = 0.101	840.09	844.85	849.21	853.54	857.59	–	–	–	–
298.15 K, x1 = 0.1502	862.34	867.1	871.47	875.8	879.93	–	–	–	–
298.15 K, x1 = 0.2059	885.36	890.12	894.5	898.84	902.99	–	–	–	–
298.15 K, x1 = 0.25	902	906.75	911.19	915.53	919.64	–	–	–	–
298.15 K, x1 = 0.3004	919.49	924.24	928.68	933.03	937.16	–	–	–	–
298.15 K, x1 = 0.3426	933.01	937.77	942.22	946.56	950.71	–	–	–	–
298.15 K, x1 = 0.3984	949.56	954.26	958.77	963.12	967.28	–	–	–	–
298.15 K, x1 = 0.4514	964.01	968.71	973.22	977.52	981.7	–	–	–	–
298.15 K, x1 = 0.5054	977.58	982.28	986.75	991.05	995.2	–	–	–	–
298.15 K, x1 = 0.5509	988.15	992.8	997.28	1001.58	–	–	–	–	–
298.15 K, x1 = 0.6002	998.73	1003.39	1007.87	1012.12	–	–	–	–	–
298.15 K, x1 = 0.6469	1008.04	1012.69	1017.17	1021.43	–	–	–	–	–
298.15 K, x1 = 0.6993	1017.79	1022.44	1026.93	1031.19	–	–	–	–	–
298.15 K, x1 = 0.7496	1026.56	1031.16	1035.66	1039.91	–	–	–	–	–
298.15 K, x1 = 0.799	1034.65	1039.25	1043.74	1047.95	–	–	–	–	–
298.15 K, x1 = 0.837	1040.55	1045.15	1049.65	1053.86	–	–	–	–	–
298.15 K, x1 = 0.9093	1051.17	1055.73	1060.23	1064.44	–	–	–	–	–
298.15 K, x1 = 0.9239	1053.21	1057.76	1062.27	1066.48	–	–	–	–	–
298.15 K, x1 = 0.9575	1057.78	1062.33	1066.84	1071.05	–	–	–	–	–
298.15 K, x1 = 0.9861	1061.61	1066.16	1070.67	1074.88	–	–	–	–	–
298.15 K, x1 = 1	1063.45	1068	1072.51	1076.72	–	–	–	–	–
